The values below come from patent publication US20240058335A1, “METHODS FOR TREATMENT OF CANCER USING ABL INHIBITORS AND DRUGS TARGETING THE MEVALONATE PATHWAY” (Duke University, priority 2021, published 2024).

Structures are written as SMILES.

One experiment relates to PC9 BrM3 cells. Nature of the experiment: Cell viability dose-response assay (CellTiter-Glo), IC50 calculation. The experiment is classed as cell-based, human. The settings on record: PC9 BrM3; dose-response assay; read-out: Calculated IC50.
The next experiment relates to PC9 cells. The settings on record: read-out: Calculated IC50, dose-response assay.
For a further experiment, the system named is HCC1954-LCC1 cells. Nature of the experiment: Intracranial injection model of HER2+ breast cancer brain metastasis. The experiment is classed as in vivo, mice. The settings on record: oral gavage. The method, then:
Nude mice were injected intracranially with HCC1954-LCC1 cells on Day 0. On Day 10, mice were divided evenly between treatment groups (Vehicle or GNF5) based on tumor burden and weight. Tumors were monitored weekly by BLI until experimental endpoint (Day 55). (FIG. 15A) Overall survival curve of nude mice injected intracranially with HCC1954-LCC1 and treated with vehicle (n=9) or GNF5 (n=10) and representative BLI images of mice at day 33 post-injection. (FIG. 16B) Overall survival curve of nude mice injected intracranially with HCC1954-LCC1 ABL1/2 KO (n=15) or control cells (n=15) and representative of BLI images of mice at day 21 post-injection. Statistical analysis was performed using Log-rank (Mantel-Cox) test.

A further experiment has as its system PC9 GR4 cells. Nature of the experiment: Cell viability dose-response assay (CellTiter-Glo), IC50 calculation. The class given is cell-based, human. The settings on record: PC9 GR4; dose-response assay; read-out: Calculated IC50.
A further experiment deals with H358 cells. Described as above. The class given is cell-based, human. The settings on record: H358; dose-response assay; read-out: Calculated IC50.
The subject of another experiment is H460 cells. Described as above. The class given is cell-based, human. The settings on record: H460; dose-response assay; read-out: Calculated IC50.
The subject of experiment [1] is lung cancer cells (PC9, PC9 GR4, PC9 BrM3, H460, H358). Nature of the experiment: 72 hr growth inhibition / cell viability assay with drug combinations and metabolite rescue. The class given is cell-based, human. The note with it: PC9-BrM3, sub-therapeutic doses, 72 hrs.
The test system of experiment [2] is lung cancer cells (PC9, PC9 GR4, H460, H358). Nature of the experiment: Seahorse XF Analyzer Mito Stress Test (OCR: basal respiration, maximal respiration, ATP production). The experiment is classed as cell-based, human. The note with it: IC50 doses, 24 hours; PC9, PC9 GR4, H460, H358. The source says: (FIGS. 2A-2D) Seahorse XF Analyzer Mito Stress Test analysis of mitochondrial basal respiration, maximal respiration, and ATP production as measured by changes in oxygen consumption rate (OCR). […] (FIG. 2E) Mitochondrial basal respiration, maximal respiration, and ATP production as measured by Seahorse XF Analyzer's Mito Stress Test for PC9 cells harboring shRNAs against ABL1/ABL2 (shAA) and non-targeting control (shSCR). (FIGS. 2F-2G) Mitochondrial ROS (MitoROS) release as measured by FACS analysis of median fluorescent intensity (MFI) using Mitosox probe. […] Data are mean±SEM. […] Seahorse XF Analyzer Mito Stress Test analysis of mitochondrial basal respiration, maximal respiration, and ATP production as measured by changes in oxygen consumption rate (OCR) in the indicated lung cancer cells: (FIG. 8A) PC9; (FIG. 8B) PC9 GR4; (FIG. 8C) H460. […] Doses correspond to IC50 dose for each drug in the corresponding cell line. In each graph, for each of Basal Respiration, Maximal Respiration, and ATP production, data is shown from left to right for DMSO, GNF5, and Nilotinib. […] Cells were treated with IC50 doses for 24 hours (n=3). Data are mean±SEM. […] SEAHORSE MEASUREMENTS. Basal and maximal oxygen consumption rate and ATP production were measured using a Mito Stress test Kit and XF96 Extracellular Flux Analyzer (Seahorse Bioscience), according to manufacturer's instructions. Cells were plated in XF96 plates at 10,000 cells per well on Day 0. […] The plate was incubated in a non-CO2 incubator at 37° C. for 1 hr to equilibrate.

One may read the IC50 as the midpoint of a concentration-inhibition curve. Consider `O=C(NCCO)c1cccc(-c2cc(Nc3ccc(OC(F)(F)F)cc3)ncn2)c1` [GNF5], for which the IC50 was 10 µM in the experiment with PC9 BrM3 cells; 10 µM in the experiment with PC9 cells; 10 µM in the experiment on PC9 GR4 cells; 15 µM in the experiment on H358 cells; 15 µM in the experiment on H460 cells. For the same molecule, in the experiment with HCC1954-LCC1 cells, the animal survival entry is given as “markedly increased animal survival”. In addition, the “metastatic outgrowth and brain colonization (BLI)” value in the experiment with HCC1954-LCC1 cells was “impaired metastatic outgrowth and colonization of the brain parenchyma”. In addition, the “cell survival in the presence of statins” value in experiment [1] was “decreased cell survival”. Further, the “mitochondrial function (basal respiration, maximal respiration, ATP production; OCR)” value in experiment [2] is listed as “greatly decreased”.
